The values below come from patent publication US10624948B2, “Use of cell-permeable peptide inhibitors of the JNK signal transduction pathway for the treatment of various diseases” (Xigen Inflammation Ltd., priority 2013, dated 2020).

Molecules are shown by their SMILES.

Data set [1] in a line: Phase II trial, safety and tolerability (adverse events). Here is the method: The criteria for evaluation of safety were:
An AE is therefore any unfavorable and unintended sign, symptom or disease temporally associated with the use of a medicinal product, whether or not considered related to the medicinal product.
Patients were analyzed as treated, i.e. according to the treatment which they received. The safety set was the primary analysis set for the safety analysis.
The present study was a double-blind study. All patients who were randomized and for whom the sub-conjunctival injection was started are included in the safety analysis by dose group. […] If the study treatment eye drops were stopped prematurely (i.e. before day 21), the patients concerned continued follow-up until day 28, in accordance with the study protocol.
Investigators assessed (in a blinded manner) the relationship of each reported AE to any of the study treatments. An event was considered to be related to study treatment if the Investigator ticked either ‘possible’ or ‘probable’ as the reply to this question.

For data set [2], the system named is HCT 116 human colon tumor. Briefly: Orthotopic HCT 116 human colon tumors in SCID mice. Type of data set: in vivo. Here is the method:
The objective of this study was to determine the effect of XG-102 on the growth of HCT 116 human colon tumor orthotopically xenografted in SCID mice.
For XG-102 administration the required amount of XG-102 was dissolved in the vehicle. The formulation was prepared according to the procedure detailed below. Concentrations were calculated and expressed taking into account test item purity and peptide content (multiplier coefficient was 74.6%). […] Diluted solutions were maintained on ice until use. Unused material was discarded. XG-102 was injected once daily at 0.1 and 1 mg/kg/inj. for a total of fourteen consecutive administrations (Q1D×14). The routes of substance administrations were: injected subcutaneously (SC) at 5 ml/kg/inj., administered per os (PO) to mice by oral gavage via a canula at 5 ml/kg/adm. The injection and administration volumes were adapted, according to the daily individual body weight of mice.
Twenty four to Forty-eight hours before tumor induction, 5 SCID mice were irradiated with a γ-source (1.8 Gy, Co^60, INRA, Dijon, France). Ten millions (10^7) HCT 116 cells suspended in 200 μl of RPMI medium were subcutaneously injected in the right flank of the 5 female SCJD mice. When tumors reached 1000-2000 mm^3, mice were sacrificed. […]
Mice were sacrificed at D26. […] Invasion of liver by tumor nodules was evaluated macroscopically. […]

With `CC(C)C[C@@H](NC(=O)[C@@H](Cc1ccccc1)NC(=O)[C@H]1CCCN1C(=O)[C@@H](CCC(N)=O)NC(=O)[C@H](NC(=O)[C@H]1CCCN1C(=O)[C@@H](CCCNC(=N)N)NC(=O)[C@@H](CO)NC(=O)[C@@H](CCC(N)=O)NC(=O)[C@H](N)CC(=O)O)C(C)C)C(=O)N[C@H](CC(N)=O)C(=O)N[C@H](CC(C)C)C(=O)N[C@@H](C(=O)N[C@@H](C(=O)N1CCC[C@@H]1C(=O)N[C@H](CCCNC(=N)N)C(=O)N[C@H](CCCCN)C(=O)N1CCC[C@@H]1C(=O)N[C@H](CCCNC(=N)N)C(=O)N1CCC[C@@H]1C(=O)N1CCC[C@@H]1C(=O)N[C@H](CCCNC(=N)N)C(=O)N[C@H](CCCNC(=N)N)C(=O)N[C@H](CCCNC(=N)N)C(=O)N[C@H](CCC(N)=O)C(=O)N[C@H](CCCNC(=N)N)C(=O)N[C@H](CCCNC(=N)N)C(=O)N[C@H](CCCCN)C(=O)N[C@H](CCCCN)C(=O)N[C@H](CCCNC(=N)N)C(=O)NCC(=O)O)[C@H](C)O)[C@H](C)O` [XG-102], the “patients with Intraocular pressure increased” value in data set [1] (XG-102 90 μg) was 23%; in data set [1] (XG-102 900 μg), 10%. For the same compound, the “percentage of patients who experienced an AE within 24 hours” value in data set [1] (XG-102 90 μg) is reported as 34%; in data set [1] (XG-102 900 μg), 27%. For the same compound, the overall tolerability entry in data set [1] (XG-102 90 μg and 900 μg) is listed as “well tolerated in patients who underwent complex ocular surgery”. Also, the “Adverse events which led to an interruption of study treatment” value in data set [1] (XG-102 90 μg dose group) was 11 (14.1%) number of events (%); in data set [1] (XG-102 900 μg dose group), 8 (11.6%) number of events (%). In addition, the “MBWC at D−2” value in data set [2] (PO 0.1 mg/kg/adm.) worked out at 7.1±4.6%. The “lethality after surgery vs vehicle treated group” value in data set [2] (mouse, in vivo) was “did not significantly modify lethality compared to vehicle treated group”.
